In ChEMBL document CHEMBL5143690, “Identification of nitrofuranylchalcone tethered benzoxazole-2-amines as potent inhibitors of drug resistant Mycobacterium tuberculosis demonstrating bactericidal efficacy” (Bioorg Med Chem, 2022) one finds MIC data, which are given here for 28 molecules.

In brackets after ≈: the same amount, converted by molar mass. Bounds are passed on as bounds.

One may read the MIC as the lowest concentration found to suppress growth.

Assay type in all cases: functional
In assay [1] the test system is Mycobacterium tuberculosis. The assay can be described thus: Antimycobacterial activity against Mycobacterium tuberculosis H37Rv ATCC 27294 assessed as inhibition of bacterial growth measured after 7 days by resazurin microtitre assay. The conditions noted are these: H37Rv ATCC 27294, 168 h, time 7 day. A general note: The colour change of resazurin is a common sign of viable cells or microbes.

For assay [2], the system named is Escherichia coli. The assay can be described thus: Antibacterial activity against Escherichia coli ATCC 25922 assessed as reduction in bacterial growth incubated for 16 to 18 hrs by microtiter plate assay. To be noted: time 16-18 hrs.
Assay [3] has as its system Staphylococcus aureus. The assay can be described thus: Antibacterial activity against Staphylococcus aureus ATCC 29213 assessed as reduction in bacterial growth incubated for 16 to 18 hrs by microtiter plate assay. To be noted: time 16-18 hrs.
Assay [4] deals with Klebsiella pneumoniae. As to the kind of experiment: Antibacterial activity against Klebsiella pneumoniae BAA 1705 assessed as reduction in bacterial growth incubated for 16 to 18 hrs by microtiter plate assay. The conditions noted are these: time 16-18 hrs.
Assay [5] concerns Acinetobacter baumannii. The assay can be described thus: Antibacterial activity against Acinetobacter baumannii BAA 1605 assessed as reduction in bacterial growth incubated for 16 to 18 hrs by microtiter plate assay. To be noted: time 16-18 hrs.
In assay [6] the test system is Pseudomonas aeruginosa. The assay can be described thus: Antibacterial activity against Pseudomonas aeruginosa ATCC 27853 assessed as reduction in bacterial growth incubated for 16 to 18 hrs by microtiter plate assay. The conditions noted are these: time 16-18 hrs.
Assay [7] concerns Mycobacteroides abscessus. The assay can be described thus: Antimycobacterial activity against Mycobacterium abscessus ATCC 19977 assessed as inhibition of bacterial growth after 48 hrs by resazurin microtitre assay.
Assay [8] relates to Mycolicibacterium fortuitum. As to the kind of experiment: Antimycobacterial activity against Mycobacterium fortuitum ATCC 6841 assessed as inhibition of bacterial growth after 48 hrs by resazurin microtitre assay.
Assay [9] has as its system Mycobacteroides chelonae. As to the kind of experiment: Antimycobacterial activity against Mycobacterium chelonae ATCC 6841 assessed as inhibition of bacterial growth after 48 hrs by resazurin microtitre assay.

For the molecule `O=C(/C=C/c1ccccc1Br)c1ccc(Nc2nc3ccccc3o2)cc1`, the minimal inhibitory concentration (MIC) in assay [1], in [2], in assay [3], in assay [4], in [5] and in [6] was more than 64 µg/mL in each case. Moreover, the MIC in assay [7], in [8] and in [9] was more than 64 µg/mL throughout.
With `Cc1ccc(/C=C/C(=O)c2ccc(Nc3nc4ccccc4o3)cc2)cc1`, the MIC in [1], in assay [2], in assay [3], in assay [4], in assay [5] and in assay [6] was more than 64 µg/mL throughout. The minimum inhibitory concentration (MIC) in assay [7], in assay [8] and in assay [9] was more than 64 µg/mL in each case.
With `COc1cc(/C=C/C(=O)c2ccc(Nc3nc4cc(Cl)ccc4o3)cc2)cc(OC)c1OC`, the MIC in [1] was 8 µg/mL (≈ 17.2 µM); in [2], more than 64 µg/mL; in assay [3], more than 64 µg/mL; in assay [4] it was more than 64 µg/mL; in [5], more than 64 µg/mL; in assay [6], more than 64 µg/mL. The MIC in assay [7], in assay [8] and in assay [9] was more than 64 µg/mL throughout.
With `CC(=O)N1N=C(c2ccc3oc(-c4ccc(O)cc4)nc3c2)CC1c1cccs1` (stereo not given), in [1], the MIC is 0.8 µg/mL (≈ 1.98 µM).
In the case of `COc1ccc(/C=C/C(=O)c2ccc(Nc3nc4ccccc4o3)cc2)cc1`, the minimal inhibitory concentration (MIC) is 32 µg/mL (≈ 86.4 µM) in assay [1]; more than 64 µg/mL in [2]; more than 64 µg/mL in assay [3]; more than 64 µg/mL in [4]; more than 64 µg/mL in assay [5]; more than 64 µg/mL in assay [6]. Further, the MIC in assay [7], in [8] and in assay [9] was more than 64 µg/mL each time.
Regarding `COc1cc(/C=C/C(=O)c2ccc(Nc3nc4cc(C(C)(C)C)ccc4o3)cc2)cc(OC)c1OC`, the MIC is 32 µg/mL (≈ 65.8 µM) in assay [1]; more than 64 µg/mL in assay [2]; more than 64 µg/mL in assay [3]; more than 64 µg/mL in [4]; more than 64 µg/mL in [5]; more than 64 µg/mL in [6]. The minimum inhibitory concentration (MIC) in assay [7], in assay [8] and in assay [9] was more than 64 µg/mL each time.
Take `O=C(/C=C/c1ccc(Cl)cc1Cl)c1ccc(Nc2nc3ccccc3o2)cc1`: the MIC in [1], in [2], in assay [3], in [4], in [5] and in assay [6] was more than 64 µg/mL throughout. Moreover, the minimal inhibitory concentration (MIC) in assay [7], in [8] and in assay [9] was more than 64 µg/mL in each case.
For `COc1cc(/C=C/C(=O)c2ccc(Nc3nc4cc([N+](=O)[O-])ccc4o3)cc2)cc(OC)c1OC`, the MIC is 16 µg/mL (≈ 33.7 µM) in assay [1]; more than 64 µg/mL in assay [2]; more than 64 µg/mL in assay [3]; more than 64 µg/mL in assay [4]; more than 64 µg/mL in assay [5]; more than 64 µg/mL in assay [6]. Besides, the MIC in assay [7], in assay [8] and in [9] was more than 64 µg/mL throughout.
Take `COc1ccc(OC)c(C(=O)/C=C/c2ccc3nccnc3c2)c1`: in [1], the MIC worked out at 3.13 µg/mL (≈ 9.77 µM).
Turning to `O=C(/C=C/c1ccc(Br)cc1)c1ccc(Nc2nc3ccccc3o2)cc1`, the MIC in assay [1] was 64 µg/mL (≈ 153 µM); in assay [2], more than 64 µg/mL; in assay [3], more than 64 µg/mL; in [4] it was more than 64 µg/mL; in assay [5] it was more than 64 µg/mL; in assay [6], more than 64 µg/mL. Further, the minimum inhibitory concentration (MIC) in assay [7], in assay [8] and in assay [9] was more than 64 µg/mL in each case.
On to `COc1cc(C2CC(c3ccccc3)=NN2C(C)=O)cc2nc(N)oc12` (stereo not given), for which the MIC in [1] was 0.625 µg/mL (≈ 1.78 µM).
As for `O=C(/C=C/c1ccccc1Cl)c1ccc(Nc2nc3ccccc3o2)cc1`, the MIC in [1], in assay [2], in assay [3], in assay [4], in assay [5] and in [6] was more than 64 µg/mL throughout. Besides, the MIC in [7], in [8] and in [9] was more than 64 µg/mL in each case.
Consider `O=C(O)c1ccc(/C=C/C(=O)c2ccc(Nc3nc4ccccc4o3)cc2)cc1`, for which the MIC in assay [1], in [2], in assay [3], in assay [4], in assay [5] and in assay [6] was more than 64 µg/mL each time. For the same molecule, the MIC in assay [7], in [8] and in assay [9] was more than 64 µg/mL in each case.
Turning to `COc1cc(/C=C/C(=O)c2cccc(Nc3nc4ccccc4o3)c2)cc(OC)c1OC`, the MIC in assay [1] is 8 µg/mL (≈ 18.6 µM); in assay [2], more than 64 µg/mL; in assay [3], more than 64 µg/mL; in assay [4] it was more than 64 µg/mL; in assay [5] it was more than 64 µg/mL; in [6], more than 64 µg/mL. The minimum inhibitory concentration (MIC) in assay [7], in assay [8] and in assay [9] was more than 64 µg/mL in each case.
Regarding `O=C(/C=C/c1ccccc1)c1ccc(Nc2nc3ccccc3o2)cc1`, the minimum inhibitory concentration (MIC) in assay [1] is 16 µg/mL (≈ 47 µM); in [2], more than 64 µg/mL; in assay [3] it was more than 64 µg/mL; in assay [4], more than 64 µg/mL; in assay [5] it was more than 64 µg/mL; in [6] it was more than 64 µg/mL. In addition, the MIC in [7], in assay [8] and in assay [9] was more than 64 µg/mL each time.
Consider `O=C(/C=C/c1cccc(Cl)c1)c1ccc(Nc2nc3ccccc3o2)cc1`, for which the MIC in assay [1], in [2], in assay [3], in [4], in [5] and in assay [6] was more than 64 µg/mL each time. Moreover, the MIC in assay [7], in assay [8] and in assay [9] was more than 64 µg/mL throughout.
Consider `O=C(/C=C/c1ccccc1F)c1ccc(Nc2nc3ccccc3o2)cc1`, for which the MIC in assay [1], in assay [2], in assay [3], in assay [4], in assay [5] and in [6] was more than 64 µg/mL in each case. The minimal inhibitory concentration (MIC) in assay [7], in assay [8] and in assay [9] was more than 64 µg/mL in each case.
For `O=C(/C=C/c1cccc([N+](=O)[O-])c1)c1ccc(Nc2nc3ccccc3o2)cc1`, the MIC in assay [1], in assay [2], in [3], in assay [4], in assay [5] and in assay [6] was more than 64 µg/mL in each case. Moreover, the minimum inhibitory concentration (MIC) in [7], in assay [8] and in [9] was more than 64 µg/mL throughout.
Regarding `O=C(/C=C/c1ccco1)c1ccc(Nc2nc3ccccc3o2)cc1`, the minimum inhibitory concentration (MIC) was 32 µg/mL (≈ 96.9 µM) in assay [1]; more than 64 µg/mL in assay [2]; more than 64 µg/mL in [3]; more than 64 µg/mL in assay [4]; more than 64 µg/mL in [5]; more than 64 µg/mL in assay [6]. Also, the minimal inhibitory concentration (MIC) in assay [7], in assay [8] and in assay [9] was more than 64 µg/mL in each case.
For `COc1ccc(/C=C/C(=O)c2ccc(Nc3nc4ccccc4o3)cc2)cc1OC`, the minimum inhibitory concentration (MIC) in assay [1] is 32 µg/mL (≈ 79.9 µM); in [2], more than 64 µg/mL; in [3], more than 64 µg/mL; in assay [4] it was more than 64 µg/mL; in assay [5], more than 64 µg/mL; in [6], more than 64 µg/mL. The MIC in assay [7], in [8] and in assay [9] was more than 64 µg/mL throughout.
Regarding `O=C(/C=C/c1ccc([N+](=O)[O-])cc1)c1ccc(Nc2nc3ccccc3o2)cc1`, the MIC in assay [1] is 32 µg/mL (≈ 83 µM); in assay [2] it was more than 64 µg/mL; in assay [3], more than 64 µg/mL; in assay [4], more than 64 µg/mL; in assay [5], more than 64 µg/mL; in assay [6], more than 64 µg/mL. The MIC in assay [7], in [8] and in [9] was more than 64 µg/mL throughout.
As to `O=C(/C=C/c1ccccn1)c1ccc(Nc2nc3ccccc3o2)cc1`, the minimum inhibitory concentration (MIC) in [1] is 4 µg/mL (≈ 11.7 µM); in assay [2], more than 64 µg/mL; in assay [3], more than 64 µg/mL; in assay [4] it was more than 64 µg/mL; in [5], more than 64 µg/mL; in assay [6] it was more than 64 µg/mL. Besides, the minimal inhibitory concentration (MIC) in assay [7], in assay [8] and in assay [9] was more than 64 µg/mL each time.
For `COc1ccc(/C=C/C(=O)c2ccc(Nc3nc4ccccc4o3)cc2)c(OC)c1OC`, the MIC in [1] was 16 µg/mL (≈ 37.2 µM); in assay [2], more than 64 µg/mL; in assay [3], more than 64 µg/mL; in assay [4] it was more than 64 µg/mL; in [5], more than 64 µg/mL; in assay [6] it was more than 64 µg/mL. Further, the MIC in assay [7], in [8] and in [9] was more than 64 µg/mL in each case.
With `NNC(=O)c1ccncc1` [ISONIAZID], in assay [1], the minimum inhibitory concentration (MIC) was 0.03 µg/mL (≈ 0.219 µM).
Still for that read-out and setting: to `CC(=O)N1N=C(c2ccccc2)CC1c1cc(Cl)c2oc(S)nc2c1` (stereo not given) belongs 1.25 µg/mL (≈ 3.36 µM).
As to `C[C@H]1COc2c(N3CCN(C)CC3)c(F)cc3c(=O)c(C(=O)O)cn1c23.C[C@H]1COc2c(N3CCN(C)CC3)c(F)cc3c(=O)c(C(=O)O)cn1c23.O` [LEVOFLOXACIN], the MIC amounted to 0.0078 µg/mL in assay [2], 0.125 µg/mL in assay [3] and 64 µg/mL in assay [4].
Consider `CC[C@@H](CO)NCCN[C@@H](CC)CO` [ETHAMBUTOL], for which the minimal inhibitory concentration (MIC) in assay [1] came out at 2 µg/mL (≈ 9.79 µM).
Same read-out and setting: then `CN[C@@H]1[C@H](O[C@H]2[C@H](O[C@H]3[C@H](O)[C@@H](O)[C@H](N=C(N)N)[C@@H](O)[C@@H]3N=C(N)N)O[C@@H](C)[C@]2(O)C=O)O[C@@H](CO)[C@H](O)[C@H]1O` [STREPTOMYCIN], with 1 µg/mL (≈ 1.72 µM).
